The record followed here is patent publication US20260174860A1, “HYBRID COMPOUNDS OF SCLAREOL AND DOXORUBICIN, THEIR SYNTHESIS AND APPLICATION” (INSTITUTE FOR BIOLOGICAL RESEARCH "SINISA STANKOVIC" - …, priority 2023, published 2026).

Common to all, as to assay: MTT test of cell viability, 72 h treatment
Assay type in all cases: cell-based
On the technique in general: Tetrazolium dyes change colour on reduction, which living cells bring about.

The subject of assay [1] is MRC-5 human lung fibroblast cell line. On the procedure: (§1) The MTT test was used to evaluate the effect of the compounds on cell viability. The test relies on the reduction of tetrazolium salt (MTT) to formazan, which is catalyzed by the mitochondrial enzyme succinate dehydrogenase. The activity of succinate dehydrogenase, which is indicative of mitochondrial respiration, is taken as an indirect measure of the metabolic activity of the cell, and thus its viability. The MTT-formazan produced is a purple-colored product, whose absorbance is measured at a wavelength of 570 nm. • a) To determine the inhibition of cell growth by SC, different cell lines were exposed to increasing concentrations of SC (5, 10, 25, 50, and 100 μM). The cells were seeded in 96-well microtiter plates at a density of 2,000 cells per well for NCI-H460, NCI-H460/R, DLD1 and DLD1-TxR, and 4,000 cells per well for MRC-5, U87, U87-TxR, and U251 in 100 μL of the appropriate medium. Control cells that received no treatment were also seeded at the same time. After 24 h for adaptation, the cells were treated with various concentrations of SC. After 72 h of treatment, 0.2 mg/ml MTT was added to each well in the appropriate cell culture medium. After 4 h of incubation at 37° C. with 5% CO2, the medium was removed, and 100 μL of DMSO were added to each well, to dissolve the formazan. The absorbance of the samples was measured at 570 nm using a Multiskan Sky Microplate spectrophotometer (ThermoFisher Scientific, USA). The results were analyzed using GraphPad Prism 8.0.2. software, and the IC50 values were determined by non-linear regression. • b) To test the interaction between SC and DOX in terms of cytotoxicity in different cell lines, cells were seeded in 96-well microtiter plates at a density of 2,000 cells per well for NCI-H460, NCI-H460/R, DLD1 and DLD1-TxR, and 4,000 cells per well for MRC-5, U87, U87-TxR, and U251 in 100 μl of the appropriate medium. SC (10 and 20 μM) was combined with increasing concentrations of DOX (20, 50, 100, 200, and 500 nM). The cells were treated with the simultaneous combinations for 72 h. After this period, 0.2 mg/ml MTT was added to each well, followed by 4 hours of incubation at 37° C. with 5% CO2. The medium was then removed, and DMSO was added to each well to dissolve the formazan.
(§2) The absorbance of the samples was measured at 570 nm using a Multiskan Sky Microplate spectrophotometer.
(§3) The analysis was carried out using GraphPad Prism software version 8.0.2 to determine the nature of the interaction, namely synergistic, antagonistic, or additive, between compounds. This was done using the computer software CalcuSyn, which is based on the combination index method. The method takes into account the concentration of compounds, the individual effect of each compound, as well as the effect of two compounds in combination. The values of the combination indices (CI) describe the nature of the interaction: Cl<0.9 indicates synergism, Cl>1.1 indicates antagonism, and Cl=0.9-1.1 indicates an additive effect. • c) To compare the resistance and selectivity profiles among SC, DOX, CON1, and CON2, human glioblastoma cell lines U87, U87-TxR, and MRC-5 were seeded at a density of 4,000 cells per well in 100 μL of the appropriate medium. In contrast, NCI-H460, NCI-H460/R, and MRC-5 were seeded at a density of 2,000 cells per well in 100 μL of the proper medium. The effect of SC derivatives LIG1 and LIG2 was also examined. The range of concentrations differed among the cell lines and the compounds. For LIG1 and LIG2, the range of concentrations for all cell lines was 50, 100, 200, 300, and 400 μM, while the same range was used for the MRC-5 in the case of SC, CON1, and CON2. DOX concentrations ranged 0.1, 0.25, 0.5, 1, and 2.5 μM for U87 and NCI-H460, and 0.25, 0.5, 1, 2.5, and 5 μM for U87-TxR, NCI-H460/R, and MRC-5. Five concentrations used for SC, CON1, and CON2 treatments varied in the range 1, 2.5, 5, 10, 25, 50, and 100 μM. The treatment lasted 72 h. […]

In assay [2] the test system is NCI-H460/R resistant human non-small cell lung carcinoma cell line. The following applies: for IC50: MTT, 72 h, MDR line; for Relative Resistance: ratio IC50 NCI-H460/R / IC50 NCI-H460. Here is the method: as §1, §2, §3
Assay [3] deals with U87-TxR resistant human glioblastoma cell line. The following applies: for IC50: MTT, 72 h, MDR line; for Relative Resistance: ratio IC50 U87-TxR / IC50 U87. On the procedure: as §1, §2, §3
Assay [4] has as its system NCI-H460 human non-small cell lung carcinoma cell line. As to conditions: for IC50: MTT, 72 h; for Selectivity Index: ratio IC50 MRC-5 (2,000 cells per well) / IC50 NCI-H460. On the procedure:
as §1
as §3, with “h. After the treatment period, 0.2 mg/ml MTT in the appropriate cell culture medium was added to each well.” for “h.”

The subject of assay [5] is U87 human glioblastoma cell line. As to conditions: for IC50: MTT, 72 h; for Selectivity Index: ratio IC50 MRC-5 (4,000 cells per well) / IC50 U87. Here is the method:
as §1
as §3, with “h. After the treatment period, 0.2 mg/ml MTT in the appropriate cell culture medium was added to each well.” for “h.”

The mark [6] stands for this setting: Homo sapiens, NCI-H460, DOX only.

For the compound `COc1cccc2c1C(=O)c1c(O)c3c(c(O)c1C2=O)C[C@@](O)(C(=O)CO)C[C@@H]3O[C@H]1C[C@H](N)[C@H](O)[C@H](C)O1` [DOX, doxorubicin], the IC50 (as a rule, the point on the concentration scale where inhibition reaches its midpoint) worked out at 0.588 µM in assay [1] (Homo sapiens, MRC5, 72 h, 2,000 cells per well (non-small cell carcinoma experiments), DOX only); 0.295 µM in assay [1] (Homo sapiens, MRC5, 72 h, 4,000 cells per well (glioblastoma experiments), DOX only); 2.5 µM in assay [2] (setting [6]); 1.32 µM in assay [3] (Homo sapiens, U87-TxR, DOX only); 0.128 µM in assay [4] (setting [6]); 0.1 µM in assay [5] (Homo sapiens, DOX only). In addition, the “Relative Resistance” value in assay [2] was determined as 19.6; in assay [3], 13.2. Also, the “Selectivity Index” value in assay [4] came to 4.6; in assay [5], 2.9.
Turning to `C=C[C@](C)(O)CC[C@@H]1[C@@]2(C)CCCC(C)(C)[C@@H]2CC[C@@]1(C)O` [SC, sclareol], the IC50 in assay [1] (Homo sapiens, MRC5, 72 h, 2,000 cells per well (non-small cell carcinoma experiments)) stood at 64.1 µM; in assay [1] (Homo sapiens, MRC5, 72 h, 4,000 cells per well (glioblastoma experiments)), 75.9 µM; in assay [2] (Homo sapiens, NCI-H460), 47.4 µM; in assay [3] (Homo sapiens, U87-TxR), 39.2 µM; in assay [4] (Homo sapiens, NCI-H460) it was 40.3 µM; in assay [5] (Homo sapiens), 51.6 µM. Besides, the results for the “Relative Resistance” value in assay [2] and in assay [3] were 1.2 and 0.8, respectively. Also, the “Selectivity Index” value is recorded as 1.6 in assay [4] and 1.5 in assay [5].
Turning to “N1-((25,3S,4S,6R)-3-hydroxy-2-methyl-6-(((1S,3S)-3,5,12-trihydroxy-3-(2-hydroxyacetyl)-10-methoxy-6,11-dioxo-1,2,3,4,6,11-hexahydrotetracen-1-yl)oxy)tetrahydro-2H-pyran-4-yl)-N4-(3-((4-((R,E)-3-hydroxy-5-((1R,2R,4aS,8aS)-2-hydroxy-2,5,5,8a-tetramethyldecahydronaphthalen-1-yl)-3-methylpent-1-en-1-yl)benzyl)amino)propyl) succinamide [CON1]”, the IC50 in assay [1] (2,000 cells per well (non-small cell carcinoma experiments)) was determined as 72.6 µM; in assay [1] (4,000 cells per well (glioblastoma experiments)) it was 137 µM; in assay [2], 38.4 µM; in assay [3], 28.7 µM; in assay [4], 9.8 µM; in assay [5], 8.8 µM. Besides, the “Relative Resistance” value in assay [2] amounted to 3.9; in assay [3], 3.3. Besides, the “Selectivity Index” value stood at 7.4 in assay [4] and 15.6 in assay [5].
